# Publication PMC12040169 (PLOS Biology, 2025)
# Assay: in vitro
# Details: human, hela cells, % viability
row,SMILES,"viability at 28.5 h, 10 µM [%]"
1,N#Cc1c(C(F)(F)F)cc(-c2ccc(Cl)cc2)nc1SCC(=O)O [CBK131885],97.5
2,Cn1nnnc1SCC(=O)Nc1cccc2nsnc12 [CBK268973],101
3,O=C(CSc1nccc2ccccc12)NC1CCCOC1 (stereo not drawn) [CBK282677],85.2
4,COc1ccc(Nc2cccc(-c3ccc(CCC(=O)O)cc3)n2)cc1 [CBK036943],106
5,CCN(C#N)c1nc(NC)nc(OC)n1 [CBK265697],98.1
6,O=C(Nc1ccc(Cc2ccc(NC(=O)c3ccccc3F)c(O)c2)cc1O)c1ccccc1F [CBK268366],90.4
7,Cc1cc(C)c2oc(-c3ccc(Cl)c(NC(=O)Cc4ccc(Cl)cc4)c3)nc2c1 [CBK264695],97.8
8,CCN(CC)CCN1C(=O)C(O)=C(C(=O)c2ccc(Cl)cc2)C1c1cccc(Br)c1 (stereo not drawn) [CBK265165],112
9,CCOC(=O)Cn1c(-c2cccs2)cc2cccnc21 [CBK282267],95.2
10,COc1ccccc1C1(O)CCCC2CN(C(C)=O)CC21 (stereo not drawn) [CBK283134],102
11,NC(=O)CN1CCC(Oc2nccnc2OCc2cccnc2)CC1 [CBK083165],107
12,NC(=O)c1ccc(NC(=O)c2sc3ccccc3c2Cl)cc1 [CBK262643],90.8
13,COc1cc(CNCc2cccs2)cc(Cl)c1OCC(N)=O [CBK270237C],87.6
14,Cc1noc(C)c1S(=O)(=O)Nc1ccsc1C(=O)Nc1ccc(F)cc1 [CBK004604],86.3
15,O=C(Cc1ccc(Cl)cc1)Nc1ccc(Oc2ccc3c(c2)C(=O)NC3=O)cc1 [CBK265869],87.8
16,CCN(CC(=O)N1CCN(C)CC1)S(=O)(=O)c1cc(Cl)ccc1Cl [CBK269297],104
17,Nc1ncc(CCCN2CCOCC2)c(N)n1 [CBK025981],125
18,Cc1cc2cc(C(F)(F)F)nc-2n(CC(=O)NC2CC2)c1 [CBK282888],106
19,CC(C)(C)OC(=O)NCc1ccc(-c2ccc(Nc3cccnc3)nc2)cc1 [CBK037804],95.3
20,Cc1ccccc1C(=O)NCCCNC(=O)c1ccccn1 [CBK269172],96.7
21,NC(=O)CN1CC2(CCN(CCCCC3NC(=O)NC3=O)CC2)c2ccccc21 (stereo not drawn) [CBK126799],95.9
22,Cc1cc(-c2csc(CC(C)n3cc(Cl)cn3)n2)on1 (stereo not drawn) [CBK304700],91.3
23,N#C/C(=C\c1cn(CCC(N)=O)c2ccccc12)Sc1nc2ccccc2s1 [CBK267897],103

row,SMILES,"viability at 28.5 h, 10 µM [%]"
1,C[S+]([O-])c1ccc(-c2ccc(CN(C3CC3)C3CCN(c4ncccn4)CC3)cn2)cc1 (stereo not drawn) [CBK172877],90.2
2,CC(O)CN1CCN(c2nc(-c3ccncc3)nc3c2CCC3)CC1 (stereo not drawn) [CBK304971],90.3
3,Cc1cc(NC(=O)C2CCN(C(=O)CNc3ccccc3)CC2)no1 [CBK304297C],85.9
4,Cc1ccc(S(=O)(=O)N2CCCCC2CO)cc1 (stereo not drawn) [CBK051142],114
5,Cc1csc2ncc(C(=O)Nc3ccccc3C#N)c(=O)n12 [CBK287458],95.3
6,Fc1ccc(CN2CCC(n3cnc4cccnc43)CC2)cc1 [CBK283580],98.2
7,Cc1ccccc1C1(O)CCN(C(=O)C(c2cccs2)c2cccs2)CC1 [CBK286483],106
8,COc1cccc(/C=C(/C#N)c2ccc(F)cc2)c1OCc1cccc(C(=O)O)c1 [CBK267993],102
9,c1coc(-c2nccnc2NCc2ccncc2)c1 [CBK038059],105
10,Clc1ccc(OCC2CCN(Cc3c[nH]cn3)CC2)cc1 [CBK281543],82.7
11,O=C(NCC(c1ccco1)N1CCCC1)N1CCc2ccccc2C1 (stereo not drawn) [CBK304392],98.8
12,CC(C)C(=O)N1N=C2CCCCC2C1(O)C(F)(F)F (stereo not drawn) [CBK028091],93.2
13,O=[N+]([O-])c1cccc(S(=O)(=O)NCc2ccccn2)c1 [CBK263669],98.4
14,CCc1nn(CC(=O)N(CC)CC)c(=O)c2cc3sccc3n12 [CBK284054],77.8
15,Cn1cc(Cl)c(C2CCCCCN2S(=O)(=O)c2ccc3[nH]c(=O)[nH]c(=O)c3c2)n1 (stereo not drawn) [CBK286408],89.3
16,CS(=O)(=O)NC[C@H]1O[C@@H](Cc2nc(-c3ccc(F)cc3)no2)[C@H](O)[C@@H]1O [CBK288906],95.3
17,CC(C(=O)NC1CCCN(CC(F)(F)F)C1)n1cnc2ccccc21 (stereo not drawn) [CBK304185],96.6
18,CCN(CC)CCN(Cc1ccc2c(c1)OCO2)C(=O)Nc1ccc(C)cc1 [CBK159059],89.3
19,Cc1cc(NC(=O)c2ccccc2)n(-c2nc(C)c(C)c(=O)[nH]2)n1 [CBK287655],105
20,CCOc1ccc2ccccc2c1CNCc1cccnc1 [CBK269934C],91.8
21,CCN1CCCC1Cn1c(=S)[nH]c2ccccc2c1=O (stereo not drawn) [CBK267849],92.8
22,NS(=O)(=O)c1ccc(CCNC(=O)/C=C/c2ccccc2[N+](=O)[O-])cc1 [CBK265709],101
23,O=C(c1ccccc1-c1ccccc1)N1CCn2cnnc2C1 [CBK283789],85.2

row,SMILES,"viability at 28.5 h, 10 µM [%]"
1,CN1CCN(C(=O)c2ccc(NS(=O)(=O)c3cc(Cl)sc3Cl)cc2)CC1 [CBK034549],94
2,CCSc1ccc(-c2cn3ccnc3c(N3CCN(CCN(C)C)CC3)n2)cc1 [CBK066662],92.8
3,CC(c1ccccc1)N(C)C(=O)Cn1c(-c2cccs2)n[nH]c1=S (stereo not drawn) [CBK296718],95.6
4,COc1ccc(C(=O)Nc2ccccc2O)cc1S(=O)(=O)N1CCCCC1 [CBK269665],92.6
5,CCOc1cc(NC2CCN(C(=O)CC3(O)CCCCC3)CC2)ncn1 [CBK304141],81.6
6,CC1CCC(N(Cc2nnc(C(C)C)o2)CC2CCCO2)CC1 (stereo not drawn) [CBK305169],89.7
7,Cc1cc(NC(=O)CN(C)C(=O)c2cnc(Cl)c(Cl)c2)no1 [CBK306132],101
8,O=[N+]([O-])c1cc2c(cc1CN1CCN(Cc3ccccc3)CC1)OCO2 [CBK261548],94.7
9,O=C(c1c(F)cccc1F)N1CCC(O)(c2cccnc2F)CC1 [CBK284359],97.7
10,Cc1ccc(CN(CCCn2ccnc2)Cc2cccnc2)o1 [CBK283100],106
11,COc1ccc(-c2noc(CSc3nc4sc(C)c(C)c4c(=O)n3-c3ccccc3)n2)cc1 [CBK268264],100
12,Cc1cc(CNC(=O)Nc2ccc(F)c(-n3nnnc3C)c2)n(C)n1 [CBK305525],88.4
13,CCc1cc(-c2n[nH]cc2-c2nc(C)cs2)c(O)cc1OC [CBK287934],103
14,CC(C)c1ccnc(C(C)Sc2nc(N)c(Br)c(Cl)n2)c1 (stereo not drawn) [CBK016828],86.1
15,c1ccc(Oc2cccc(CN3CCN(c4ccccn4)CC3)c2)cc1 [CBK261523],102
16,CC1Cc2cc(C(O)CN3CCCC3)ccc2N1C(=O)C1CC1 (stereo not drawn) [CBK286440],94.9
17,CCC(c1ccc(F)cc1)N(C)C(=O)Cn1cccc(C(=O)NC2CCCCC2)c1=O (stereo not drawn) [CBK286114],96.4
18,COCCc1noc(CC2CCN(c3ccc(C#N)nc3)CC2)n1 [CBK304094],89.9
19,O=C(Cn1cccc2cc(C3CCCNC3)nc1-2)N1CCCCCC1 (stereo not drawn) [CBK285088],93.2
20,CCNc1cc2ccccc2c(-c2ccc3c(c2)OCCCO3)n1 [CBK089641],99.2
21,Cc1ccccc1C(NC(=O)C1CCN(C(=O)CCC2CCCC2)CC1)c1ccccn1 (stereo not drawn) [CBK059677],90.5
22,COc1ccc(C)cc1NS(=O)(=O)CC(C)C [CBK111346],93.8
23,N#CCCN(C(=O)NCc1ccc2c(c1)OCO2)C1CCCCC1 [CBK156351],98.7

row,SMILES,"viability at 28.5 h, 10 µM [%]"
1,OCc1ccc(-c2nccnc2N2CCCC2CO)cc1 (stereo not drawn) [CBK089053],96.3
2,Cc1ccc(Cl)cc1Nc1nc2nc(C)c(NCC3CC3)cn2n1 [CBK008522],105
3,CC1=NN(c2nc(-c3ccc(Br)cc3)cs2)C(=O)C1/N=N/c1ccccc1C(=O)O (stereo not drawn) [CBK262440],91.8
4,O=C(O)CN(c1cccc([N+](=O)[O-])c1)S(=O)(=O)c1ccccc1 [CBK262684],85.6
5,O=C(Cn1c(=O)oc2ccccc21)Nc1cccc(C(=O)O)c1 [CBK267641],97.4
6,O=C(c1ccc2ncccc2c1)N1CCN(C(=O)c2ccco2)CC1 [CBK144461],94
7,O=C(c1ccc(F)cc1)C1CCN(CCc2c[nH]c3ccccc23)CC1 [CBK149125],96.3
8,Cc1cc(C)n(CC(O)CN(c2ccccc2)S(=O)(=O)c2ccccc2)n1 (stereo not drawn) [CBK264469],118
9,CC(=O)Nc1cc(Cl)ccc1OS(=O)(=O)c1ccc(Cl)cc1 [CBK264992],90.3
10,CC(=O)N1CCc2cc(C(O)CN3CCN(c4nsc5ccccc45)CC3)ccc21 (stereo not drawn) [CBK283092],93.3
11,Cc1nc2ccc(C(=O)NC(C)c3ccccn3)cc2s1 (stereo not drawn) [CBK281890],94.6
12,CC(C)(C)c1cc(-n2c(-c3cccnc3)nc3ccccc32)cc(C(C)(C)C)c1O [CBK262907],103
13,CCC1CCCCN1C(=O)c1ccc(C(F)(F)F)cc1 (stereo not drawn) [CBK081165],107
14,O=C(c1ccc(F)cc1)C1CCN(Cc2ccc3ccccc3c2)CC1 [CBK149122],79.9
15,COc1ccccc1CNc1ccc(C(=O)O)cc1 [CBK078187],106
16,CCOC(=O)Cc1nc2cc([N+](=O)[O-])ccc2oc1=O [CBK015603],98
17,C(=N\Nc1nnnn1-c1ccccc1)/c1ccco1 [CBK007334],109
18,CC1(C)CC(=O)C=C(C(=O)NCc2ccc3c(c2)OCO3)O1 [CBK153290],98.3
19,CCCCCC1CC(CC(=O)NC(=S)Nc2ccccc2Cl)C(=O)O1 (stereo not drawn) [CBK019495],86.8
20,COC(=O)C(Nc1cccc(Cl)c1)(c1cc(OC)c(O)c(OC)c1)C(F)(F)F (stereo not drawn) [CBK009591],96.6
21,CCc1nn2c(C3CCNCC3)ccnc2c1-c1cccs1 [CBK284226],80.4
